Patent US10433556B2, “Treatment and/or prophylaxis of storage diseases of harvested material” (priority 2011, dated 2019)

What was measured:
[1] = tested on: Helminthosporium solani; experiment: Field trial 2010/2011 Netherlands: production of spores of the silver scurf pathogen on the potato tuber; type: in vivo; conditions: treatment of the potato before the storage; FIG. 2
Experimental: (§1) For the treatment of the seed potato at or before the laying into the ground soil Proradix is used as a liquid mordant [Proradix WG (LF 4816-00); Sourcon […] GmbH & Co. KG, Tübingen, Germany], according to the information of the manufacturer in a concentration of 60 g/ha via the spraying method by using a ULV spraying device. Before the storage of the potatoes 20 g of Proradix WG is dissolved in a maximum of 2 l of water per barrel. The application onto the potatoes is also effected by means of a ULV spraying device. The laying of the potato and, if applicable, the treatment with Proradix and/or Imazalil is carried out in springtime and the harvest and storage and, if applicable, the treatment with Proradix and/or Imazalil is carried out in fall of the same year. In a further field trial conducted in the years of 2010/2011 in the Netherlands according to the EPPO guidelines the influence of Proradix in comparison to the chemical standard of Imazalil on the production of spores of the fungal pathogen of Helminthosporium solani, the initiator of the silver scurf, and the rate of germination of the spores on the potato tuber was examined.

[2] = tested on: birds and ducks; conditions: in vivo; cited from earlier work
[3] = tested on: silver scurf on potato tubers; experiment: Field trial 2010/2011 Germany: Proradix in combination with Imazalil, affection by silver scurf after storage; type: in vivo, Helminthosporium solani; conditions: exclusively Imazalil at the laying and the storage; vs untreated potatoes; FIG. 5 third column
Experimental: For the treatment of the seed potato at or before the laying into the ground soil Proradix is used as a liquid mordant [Proradix WG (LF 4816-00); Sourcon […] GmbH & Co. KG, Tübingen, Germany], according to the information of the manufacturer in a concentration of 60 g/ha via the spraying method by using a ULV spraying device. Before the storage of the potatoes 20 g of Proradix WG is dissolved in a maximum of 2 l of water per barrel. The application onto the potatoes is also effected by means of a ULV spraying device. The laying of the potato and, if applicable, the treatment with Proradix and/or Imazalil is carried out in springtime and the harvest and storage and, if applicable, the treatment with Proradix and/or Imazalil is carried out in fall of the same year. In a field trial conducted in the years of 2010 and 2011 in Germany according to the EPPO guidelines it was examined in detail, whether Proradix can also be effectively used in combination with the chemical of Imazalil. For this purpose a part of the potatoes remain untreated, a part was treated with the chemical of Imazalil at the laying, and a part was treated at the laying and also before the storage with the chemical of Imazalil, and yet another part was treated at the laying with Imazalil and before the storage with Proradix.

[4] = tested on: fish; conditions: in vivo; cited from earlier work
[5] = tested on: Helminthosporium solani; experiment: Field trial 2010/2011 Netherlands: rate of germination of the spores on the potato tuber; type: in vivo; conditions: use of Imazalil; FIG. 3 fourth column
Experimental: as §1

C=CCOC(Cn1ccnc1)c1ccc(Cl)cc1Cl (centres unmarked) [Imazalil]
formation of spores [1]: comparable
effect on birds and ducks [2]: causes damages
affection by silver scurf after the storage [3]: significantly diminished reduction
toxicity for fish [4]: toxic
share of spores able to germinate [5]: half
